The target of experiment [1] is T1, ChiA (N-terminally trimmed version) (Clostridium perfringens, UniProt F8UNI5).
T1 construct: gene CP4_3455

For the next experiment, the target named is T2, ChiB (Clostridium perfringens, UniProt F8UNI4).
T2 construct: gene CP4_3454

Experiment [2] deals with T1, ChiA (N-terminally trimmed version). The source holds these as a separate data set.

T1 sequence (F8UNI5 46-611 limits assumed): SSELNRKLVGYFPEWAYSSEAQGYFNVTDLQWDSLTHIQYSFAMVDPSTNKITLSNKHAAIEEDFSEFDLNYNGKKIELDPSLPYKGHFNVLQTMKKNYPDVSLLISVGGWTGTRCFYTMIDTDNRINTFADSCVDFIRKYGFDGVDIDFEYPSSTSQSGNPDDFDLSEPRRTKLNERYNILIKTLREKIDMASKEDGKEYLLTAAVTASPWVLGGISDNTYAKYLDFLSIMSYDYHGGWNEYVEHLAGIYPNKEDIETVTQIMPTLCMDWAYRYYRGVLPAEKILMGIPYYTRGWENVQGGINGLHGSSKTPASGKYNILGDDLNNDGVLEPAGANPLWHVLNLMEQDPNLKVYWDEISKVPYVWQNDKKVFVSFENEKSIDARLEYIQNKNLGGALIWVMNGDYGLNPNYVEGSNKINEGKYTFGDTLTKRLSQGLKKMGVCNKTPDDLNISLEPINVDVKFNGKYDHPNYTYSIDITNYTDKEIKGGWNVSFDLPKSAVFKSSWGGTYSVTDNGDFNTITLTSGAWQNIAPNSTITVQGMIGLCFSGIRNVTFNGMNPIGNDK
T2 sequence (F8UNI4 1-599): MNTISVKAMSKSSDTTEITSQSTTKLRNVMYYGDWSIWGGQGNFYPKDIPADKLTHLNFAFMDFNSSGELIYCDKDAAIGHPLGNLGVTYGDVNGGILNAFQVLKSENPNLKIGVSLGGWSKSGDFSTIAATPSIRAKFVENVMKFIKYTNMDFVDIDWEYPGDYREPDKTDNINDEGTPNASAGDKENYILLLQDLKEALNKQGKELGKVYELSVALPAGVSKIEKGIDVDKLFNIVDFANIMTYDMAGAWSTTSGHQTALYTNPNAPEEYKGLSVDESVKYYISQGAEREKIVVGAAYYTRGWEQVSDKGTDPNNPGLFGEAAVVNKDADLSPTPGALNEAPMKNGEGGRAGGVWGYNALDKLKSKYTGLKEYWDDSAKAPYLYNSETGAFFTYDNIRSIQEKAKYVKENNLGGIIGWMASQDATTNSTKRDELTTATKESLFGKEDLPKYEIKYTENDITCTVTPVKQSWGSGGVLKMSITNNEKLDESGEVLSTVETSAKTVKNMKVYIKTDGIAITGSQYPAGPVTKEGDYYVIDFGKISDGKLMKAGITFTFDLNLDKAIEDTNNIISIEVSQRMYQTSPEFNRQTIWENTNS

Consider `N[C@H]1[C@H](O[C@H]2[C@H](O)[C@@H](N)[C@H](O[C@H]3[C@H](O)[C@@H](N)[C@H](O[C@H]4[C@H](O)[C@@H](N)[C@H](O[C@H]5[C@H](O)[C@@H](N)[C@H](O[C@H]6[C@H](O)[C@@H](N)C(O)O[C@@H]6CO)O[C@@H]5CO)O[C@@H]4CO)O[C@@H]3CO)O[C@@H]2CO)O[C@H](CO)[C@@H](O)[C@@H]1O` (stereo partly drawn) [chitosan hexamer], for which the “X-ray co-crystal structure, 1.30 Å” value in experiment [1] is on record as “The crystal of ChiA in complex with the chitinase inhibitor chitosan”.

In the case of `Cn1cnc2c1c(=O)n(CCCn1c(=O)c3c(ncn3C)n(C)c1=O)c(=O)n2C` [Bisdionin C], the “X-ray co-crystal structure, 1.85 Å” value on ChiB is “The crystal of ChiB in complex with the chitinase inhibitor Bisdionin C”. For the same molecule, the “X-ray crystal structure by soaking, 1.35 Å” value in experiment [2] was “The crystal of ChiA in complex with the chitinase inhibitor Bisdionin C”.

The values are drawn from publication PMC11426533 (PLOS Pathogens, 2024).
